From ChEMBL document CHEMBL1129506, “2,4-Diarylpyrrolidine-3-carboxylic acids--potent ETA selective endothelin receptor antagonists. 1. Discovery of A-127722” (J Med Chem, 1996)

Key:
Endothelin-1 receptor = target: T1, Endothelin-1 receptor (Rattus norvegicus, UniProt P26684); experiment: Inhibitory activity against the Endothelin A receptor of rat MMQ cells; type: cell-based
T1 sequence (P26684 whole entry): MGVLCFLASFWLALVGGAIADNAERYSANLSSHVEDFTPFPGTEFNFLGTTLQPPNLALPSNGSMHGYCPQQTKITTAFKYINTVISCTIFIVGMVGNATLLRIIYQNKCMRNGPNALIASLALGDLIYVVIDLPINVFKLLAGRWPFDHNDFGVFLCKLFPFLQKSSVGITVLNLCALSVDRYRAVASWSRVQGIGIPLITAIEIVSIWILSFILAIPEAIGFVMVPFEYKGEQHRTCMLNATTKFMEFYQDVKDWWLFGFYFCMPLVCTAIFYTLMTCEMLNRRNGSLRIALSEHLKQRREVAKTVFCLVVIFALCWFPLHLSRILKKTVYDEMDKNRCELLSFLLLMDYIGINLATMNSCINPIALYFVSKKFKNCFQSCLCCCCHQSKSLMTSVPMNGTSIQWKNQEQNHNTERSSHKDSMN

[1] = target: T2, Endothelin receptor type B (Sus scrofa, UniProt P35463); experiment: Inhibitory activity measured against Endothelin B receptor binding to porcine cerebellum; type: tissue-based
T2 sequence (P35463 whole entry): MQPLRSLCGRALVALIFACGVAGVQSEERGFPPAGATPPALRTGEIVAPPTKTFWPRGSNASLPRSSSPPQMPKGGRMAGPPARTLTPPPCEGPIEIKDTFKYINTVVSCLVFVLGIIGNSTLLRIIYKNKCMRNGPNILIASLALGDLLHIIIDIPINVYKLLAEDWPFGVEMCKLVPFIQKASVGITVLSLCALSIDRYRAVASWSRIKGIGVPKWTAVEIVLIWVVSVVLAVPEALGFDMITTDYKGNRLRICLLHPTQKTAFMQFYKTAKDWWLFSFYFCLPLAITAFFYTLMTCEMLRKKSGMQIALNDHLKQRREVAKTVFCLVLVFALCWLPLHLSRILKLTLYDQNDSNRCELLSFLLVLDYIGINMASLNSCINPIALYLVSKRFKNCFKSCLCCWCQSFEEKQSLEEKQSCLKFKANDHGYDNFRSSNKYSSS

Endothelin receptor = target: T3, Endothelin receptor (Rattus norvegicus, UniProt P26684+P21451); experiment: Inhibition of phosphoinositol hydrolysis of MMQ cells.; type: functional, cell-based
T3 sequence (P26684 whole entry): T1 sequence (P26684 whole entry)
T3 sequence (P21451 whole entry): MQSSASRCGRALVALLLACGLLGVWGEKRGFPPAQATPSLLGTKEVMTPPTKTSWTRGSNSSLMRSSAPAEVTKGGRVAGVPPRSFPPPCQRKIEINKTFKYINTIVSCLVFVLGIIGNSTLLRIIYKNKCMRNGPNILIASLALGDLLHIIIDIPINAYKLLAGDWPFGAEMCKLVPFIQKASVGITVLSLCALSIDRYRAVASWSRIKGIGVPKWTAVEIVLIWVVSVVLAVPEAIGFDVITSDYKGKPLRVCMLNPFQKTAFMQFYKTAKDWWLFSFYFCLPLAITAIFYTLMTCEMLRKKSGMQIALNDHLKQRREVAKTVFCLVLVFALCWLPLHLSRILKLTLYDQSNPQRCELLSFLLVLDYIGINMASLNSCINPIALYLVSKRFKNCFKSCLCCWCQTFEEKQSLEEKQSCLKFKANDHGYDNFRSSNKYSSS

Row | SMILES | IC50 (Endothelin-1 receptor) | IC50 [1] | IC50 (Endothelin receptor)
1 | COc1ccc([C@@H]2[C@@H](C(=O)O)[C@H](c3ccc4c(c3)OCO4)CN2CCc2ccccn2)cc1 | 900 nM | 2360 nM | 
2 | CCCC#CCN1C[C@@H](c2ccc3c(c2)OCO3)[C@H](C(=O)O)[C@H]1c1ccc(OC)cc1 | 765 nM | 3590 nM | 
3 | COc1ccc([C@@H]2[C@@H](C(=O)O)[C@H](c3ccc4c(c3)OCO4)CN2C(=O)Nc2ccccc2)cc1 | 2430 nM | 3510 nM | 
4 | COc1ccc([C@@H]2[C@@H](C(=O)O)[C@H](c3ccc4c(c3)OCO4)CN2CC(=O)NCC(C)C)cc1 | 8.2 nM | 184 nM | 9.22 nM
5 | COc1ccc([C@@H]2[C@@H](C(=O)O)[C@H](c3ccc4c(c3)OCO4)CN2CC(=O)N(CC(C)C)CC(C)C)cc1 | 16.2 nM | 1820 nM | 0.6 nM
6 | CCCCCCN1C[C@@H](c2ccc3c(c2)OCO3)[C@H](C(=O)O)[C@H]1c1ccc(OC)cc1 | 2870 nM | 23300 nM | 
7 | CCCCCCN(C)C(=O)CN1C[C@@H](c2ccc3c(c2)OCO3)[C@H](C(=O)O)[C@H]1c1ccc(OC)cc1 | 7.61 nM | 404 nM | 1 nM
8 | CCCCNC(=O)N1C[C@@H](c2ccc3c(c2)OCO3)[C@H](C(=O)O)[C@H]1c1ccc(OC)cc1 | 684 nM | 11100 nM | 
9 | CCCCNC(=O)CN1C[C@@H](c2ccc3c(c2)OCO3)[C@H](C(=O)O)[C@H]1c1ccc(OC)cc1 | 43 nM | 1260 nM | 10 nM
10 | CCCCN(CCCC)CCN1C[C@@H](c2ccc3c(c2)OCO3)[C@H](C(=O)O)[C@H]1c1ccc(OC)cc1 | 794 nM | 1590 nM | 
11 | CCCC(CCC)C(=O)CN1C[C@@H](c2ccc3c(c2)OCO3)[C@H](C(=O)O)[C@H]1c1ccc(OC)cc1 | 85 nM | 283 nM | 
12 | COc1ccc([C@@H]2[C@@H](C(=O)O)[C@H](c3ccc4c(c3)OCO4)CN2CC(=O)NC2CCCC2)cc1 | 16.2 nM | 307 nM | 23.8 nM
13 | COc1ccc([C@@H]2[C@@H](C(=O)O)[C@H](c3ccc4c(c3)OCO4)CN2CCOCC(C)C)cc1 | 437 nM | 8380 nM | 
14 | COc1ccc([C@@H]2[C@@H](C(=O)O)[C@H](c3ccc4c(c3)OCO4)CN2CC(=O)N(C)Cc2ccccc2)cc1 | 769 nM | 1680 nM | 
15 | COc1ccc([C@@H]2[C@@H](C(=O)O)[C@H](c3ccc4c(c3)OCO4)CN2C(=O)c2ccco2)cc1 | 5220 nM | 40300 nM | 
16 | COc1ccc([C@@H]2[C@@H](C(=O)O)[C@H](c3ccc4c(c3)OCO4)CN2CC(=O)N(CCC(C)C)CCC(C)C)cc1 | 0.43 nM | 41 nM | 
17 | COc1ccc([C@@H]2[C@@H](C(=O)O)[C@H](c3ccc4c(c3)OCO4)CN2CC(=O)N(C)c2ccccc2)cc1 | 50.2 nM | 1180 nM | 
18 | CCCOCCN1C[C@@H](c2ccc3c(c2)OCO3)[C@H](C(=O)O)[C@H]1c1ccc(OC)cc1 | 108 nM | 4970 nM | 
19 | CCCCS(=O)(=O)N1C[C@@H](c2ccc3c(c2)OCO3)[C@H](C(=O)O)[C@H]1c1ccc(OC)cc1 | 1240 nM | 6180 nM | 
20 | CC[S+]([O-])CCN1C[C@@H](c2ccc3c(c2)OCO3)[C@H](C(=O)O)[C@H]1c1ccc(OC)cc1 (some centres undefined) | 44 nM | 834 nM | 
21 | COc1ccc([C@@H]2[C@@H](C(=O)O)[C@H](c3ccc4c(c3)OCO4)CN2CC(N)=O)cc1 |  | 3270 nM | 
22 | COc1ccc([C@@H]2[C@@H](C(=O)O)[C@H](c3ccc4c(c3)OCO4)CN2CC(=O)N2CCCCC2)cc1 | 350 nM | 3040 nM | 
23 | COc1ccc(NC(=O)N2C[C@@H](c3ccc4c(c3)OCO4)[C@H](C(=O)O)[C@H]2c2ccc(OC)cc2)cc1 | 781 nM | 3790 nM | 
24 | COc1ccc([C@@H]2[C@@H](C(=O)O)[C@H](c3ccc4c(c3)OCO4)CN2CCOc2ccccc2)cc1 | 885 nM | 3400 nM | 
25 | COc1ccc([C@@H]2[C@@H](C(=O)O)[C@H](c3ccc4c(c3)OCO4)CN2CC(=O)N(C)C2CCCCC2)cc1 | 23.8 nM | 806 nM | 2.06 nM

Row | SMILES | IC50 (Endothelin-1 receptor) | IC50 [1] | IC50 (Endothelin receptor)
26 | COc1ccc([C@@H]2[C@@H](C(=O)O)[C@H](c3ccc4c(c3)OCO4)CN2C(=O)N2CCOCC2)cc1 | 1080 nM | 5020 nM | 
27 | CCCCOCCN1C[C@@H](c2ccc3c(c2)OCO3)[C@H](C(=O)O)[C@H]1c1ccc(OC)cc1 | 220 nM | 3830 nM | 
28 | CCCS(=O)(=O)CCN1C[C@@H](c2ccc3c(c2)OCO3)[C@H](C(=O)O)[C@H]1c1ccc(OC)cc1 | 37 nM | 750 nM | 
29 | CCCCN(CCCC)C(=O)N1C[C@@H](c2ccc3c(c2)OCO3)[C@H](C(=O)O)[C@H]1c1ccc(OC)cc1 | 396 nM | 1470 nM | 
30 | COc1ccc([C@@H]2[C@@H](C(=O)O)[C@H](c3ccc4c(c3)OCO4)CN2Cc2ccc(F)cc2)cc1 | 4320 nM | 7930 nM | 
31 | C#CCN(C)C(=O)CN1C[C@@H](c2ccc3c(c2)OCO3)[C@H](C(=O)O)[C@H]1c1ccc(OC)cc1 | 106 nM | 4000 nM | 
32 | CCCCCN(C)C(=O)CN1C[C@@H](c2ccc3c(c2)OCO3)[C@H](C(=O)O)[C@H]1c1ccc(OC)cc1 | 5.78 nM | 624 nM | 5.64 nM
33 | CCCCC(=O)CN1C[C@@H](c2ccc3c(c2)OCO3)[C@H](C(=O)O)[C@H]1c1ccc(OC)cc1 | 163 nM | 2430 nM | 
34 | COc1ccc([C@@H]2[C@@H](C(=O)O)[C@H](c3ccc4c(c3)OCO4)CN2C(=O)COc2ccc(F)cc2)cc1 |  | 12700 nM | 
35 | COc1ccc([C@@H]2[C@@H](C(=O)O)[C@H](c3ccc4c(c3)OCO4)CN2CC(=O)N(C)CC(C)C)cc1 | 1.88 nM | 1050 nM | 0.28 nM
36 | CCCN(CCC)C(=O)CCN1C[C@@H](c2ccc3c(c2)OCO3)[C@H](C(=O)O)[C@H]1c1ccc(OC)cc1 | 121 nM | 4200 nM | 
37 | COCCNC(=O)CN1C[C@@H](c2ccc3c(c2)OCO3)[C@H](C(=O)O)[C@H]1c1ccc(OC)cc1 | 178 nM | 3730 nM | 
38 | COc1ccc([C@@H]2[C@@H](C(=O)O)[C@H](c3ccc4c(c3)OCO4)CN2C/C=C/CC(C)C)cc1 | 1630 nM | 27300 nM | 
39 | COCCOCCN1C[C@@H](c2ccc3c(c2)OCO3)[C@H](C(=O)O)[C@H]1c1ccc(OC)cc1 | 682 nM | 3390 nM | 
40 | CCOCCN1C[C@@H](c2ccc3c(c2)OCO3)[C@H](C(=O)O)[C@H]1c1ccc(OC)cc1 | 520 nM | 9010 nM | 
41 | CCN(CC)C(=O)CN1C[C@@H](c2ccc3c(c2)OCO3)[C@H](C(=O)O)[C@H]1c1ccc(OC)cc1 | 32.9 nM | 5250 nM | 2.26 nM
42 | COCCN(CCOC)C(=O)CN1C[C@@H](c2ccc3c(c2)OCO3)[C@H](C(=O)O)[C@H]1c1ccc(OC)cc1 | 4.45 nM | 1070 nM | 4.91 nM
43 | CCCCN(CCCC)CC(=O)N1C[C@@H](c2ccc3c(c2)OCO3)[C@H](C(=O)O)[C@H]1c1ccc(OC)cc1 | 6810 nM | 29400 nM | 
44 | CCCCN(C(=O)CN1C[C@@H](c2ccc3c(c2)OCO3)[C@H](C(=O)O)[C@H]1c1ccc(OC)cc1)c1ccccc1 | 0.81 nM | 306 nM | 
45 | CCCCCN(CCCCC)C(=O)CN1C[C@@H](c2ccc3c(c2)OCO3)[C@H](C(=O)O)[C@H]1c1ccc(OC)cc1 | 0.56 nM | 313 nM | 
46 | C=CCNC(=O)CN1C[C@@H](c2ccc3c(c2)OCO3)[C@H](C(=O)O)[C@H]1c1ccc(OC)cc1 | 34.2 nM | 889 nM | 16.5 nM
47 | CCCCN(CCCC)C(=O)C(C)N1CC(c2ccc3c(c2)OCO3)C(C(=O)O)C1c1ccc(OC)cc1 (centres undefined) | 0.46 nM | 315 nM | 1.34 nM
48 | COc1ccc([C@@H]2[C@@H](C(=O)O)[C@H](c3ccc4c(c3)OCO4)CN2CC(=O)N(C)CC(C)(C)C)cc1 | 112 nM | 1800 nM | 
49 | CCCCN(CC)C(=O)CN1C[C@@H](c2ccc3c(c2)OCO3)[C@H](C(=O)O)[C@H]1c1ccc(OC)cc1 | 0.85 nM | 531 nM | 0.33 nM
